Tests used:
Prothrombin = Prothrombin (Homo sapiens, UniProt P00734); test: In vitro inhibition of coagulation factor IIa.
Coagulation factor X = Coagulation factor X (Homo sapiens, UniProt P00742); test: In vitro inhibition of coagulation factor Xa.
Serine protease 1 = Serine protease 1 (Homo sapiens, UniProt P07477); test: In vitro inhibition of trypsin.
[1] = target: Vitamin K-dependent protein C (Homo sapiens, UniProt P04070); test: Compound was evaluated for the inhibitory activity against Activated protein C
Sequence of Vitamin K-dependent protein C (P04070 43-197 limits assumed): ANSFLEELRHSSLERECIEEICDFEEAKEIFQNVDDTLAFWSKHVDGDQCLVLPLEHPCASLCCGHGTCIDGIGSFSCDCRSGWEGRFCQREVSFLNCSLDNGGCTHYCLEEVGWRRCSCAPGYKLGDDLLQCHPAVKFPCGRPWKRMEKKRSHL
Sequence of Vitamin K-dependent protein C (P04070 212-461 limits assumed): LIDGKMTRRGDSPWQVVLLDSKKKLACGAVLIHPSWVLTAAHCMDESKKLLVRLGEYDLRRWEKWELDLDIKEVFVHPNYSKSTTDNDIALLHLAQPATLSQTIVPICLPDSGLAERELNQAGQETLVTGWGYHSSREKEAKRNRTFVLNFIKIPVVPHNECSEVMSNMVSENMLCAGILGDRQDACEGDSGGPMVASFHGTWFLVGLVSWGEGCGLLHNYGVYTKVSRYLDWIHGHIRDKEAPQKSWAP

Plasminogen = Plasminogen (Homo sapiens, UniProt P00747); test: Compound was tested for its inhibitory activity against Plasmin
Sequence of Plasminogen (P00747 97-580 limits assumed): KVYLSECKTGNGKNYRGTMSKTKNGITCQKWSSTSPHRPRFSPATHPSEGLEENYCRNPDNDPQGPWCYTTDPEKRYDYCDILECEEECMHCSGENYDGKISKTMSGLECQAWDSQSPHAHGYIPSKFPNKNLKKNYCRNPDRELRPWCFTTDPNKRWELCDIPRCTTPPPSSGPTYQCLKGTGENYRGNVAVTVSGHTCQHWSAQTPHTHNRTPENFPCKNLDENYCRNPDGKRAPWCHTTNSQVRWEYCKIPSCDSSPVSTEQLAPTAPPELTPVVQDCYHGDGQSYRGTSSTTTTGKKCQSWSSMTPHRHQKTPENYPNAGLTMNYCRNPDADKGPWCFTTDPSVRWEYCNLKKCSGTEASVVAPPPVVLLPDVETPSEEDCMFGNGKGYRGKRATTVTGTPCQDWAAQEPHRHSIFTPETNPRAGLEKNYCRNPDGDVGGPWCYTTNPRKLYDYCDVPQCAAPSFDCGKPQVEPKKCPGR
Sequence of Plasminogen (P00747 581-810 limits assumed): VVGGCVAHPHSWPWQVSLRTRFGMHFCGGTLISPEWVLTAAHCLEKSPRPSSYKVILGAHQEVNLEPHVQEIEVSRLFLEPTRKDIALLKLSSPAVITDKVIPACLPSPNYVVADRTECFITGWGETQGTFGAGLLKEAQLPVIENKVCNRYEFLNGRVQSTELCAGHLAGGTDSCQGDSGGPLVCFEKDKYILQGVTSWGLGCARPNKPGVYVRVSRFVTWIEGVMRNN

[2] = target: Tissue-type plasminogen activator (Homo sapiens, UniProt P00750); test: Compound was tested for its inhibitory activity against tissue plasminogen activator
Sequence of Tissue-type plasminogen activator (P00750 whole entry): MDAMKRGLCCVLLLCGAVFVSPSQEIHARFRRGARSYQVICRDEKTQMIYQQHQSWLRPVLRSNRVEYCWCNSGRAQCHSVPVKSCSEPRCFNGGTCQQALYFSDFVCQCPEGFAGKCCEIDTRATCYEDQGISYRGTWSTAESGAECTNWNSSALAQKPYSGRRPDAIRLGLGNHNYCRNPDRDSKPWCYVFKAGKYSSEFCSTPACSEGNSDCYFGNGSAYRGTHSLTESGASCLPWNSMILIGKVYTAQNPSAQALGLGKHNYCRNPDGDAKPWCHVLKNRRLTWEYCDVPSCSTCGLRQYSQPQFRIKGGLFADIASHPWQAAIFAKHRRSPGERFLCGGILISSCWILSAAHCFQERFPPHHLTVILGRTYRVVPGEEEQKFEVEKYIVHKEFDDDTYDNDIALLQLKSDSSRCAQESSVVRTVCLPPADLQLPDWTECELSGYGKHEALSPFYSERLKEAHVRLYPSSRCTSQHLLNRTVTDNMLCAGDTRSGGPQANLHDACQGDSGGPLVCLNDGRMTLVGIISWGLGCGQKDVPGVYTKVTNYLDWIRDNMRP

Homo sapiens = organism: Homo sapiens; test: Ability to prolong the activated partial thromboplastin time (APTT) in plasma from human; format: functional, cell-free
Rattus norvegicus = organism: Rattus norvegicus; test: Ability to prolong the activated partial thromboplastin time (APTT) in plasma from rat
Canis lupus familiaris = organism: Canis lupus familiaris; test: Ability to prolong the activated partial thromboplastin time (APTT) in plasma from dog
Oryctolagus cuniculus = organism: Oryctolagus cuniculus; test: Ability to prolong the activated partial thromboplastin time (APTT) in plasma from rabbit

Sequence of Coagulation factor X (P00742 41-179 limits assumed): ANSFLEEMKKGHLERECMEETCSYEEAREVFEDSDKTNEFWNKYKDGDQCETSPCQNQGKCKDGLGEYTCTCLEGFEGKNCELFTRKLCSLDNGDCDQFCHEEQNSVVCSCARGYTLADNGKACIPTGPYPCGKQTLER
Sequence of Coagulation factor X (P00742 235-488 limits assumed): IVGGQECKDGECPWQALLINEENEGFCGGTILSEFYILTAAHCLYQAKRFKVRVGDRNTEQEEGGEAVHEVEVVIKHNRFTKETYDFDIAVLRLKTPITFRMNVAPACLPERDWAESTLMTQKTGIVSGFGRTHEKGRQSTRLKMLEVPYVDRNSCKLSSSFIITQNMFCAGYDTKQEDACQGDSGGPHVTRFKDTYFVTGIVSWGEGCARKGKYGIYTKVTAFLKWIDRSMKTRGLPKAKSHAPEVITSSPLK
Sequence of Serine protease 1 (P07477 whole entry): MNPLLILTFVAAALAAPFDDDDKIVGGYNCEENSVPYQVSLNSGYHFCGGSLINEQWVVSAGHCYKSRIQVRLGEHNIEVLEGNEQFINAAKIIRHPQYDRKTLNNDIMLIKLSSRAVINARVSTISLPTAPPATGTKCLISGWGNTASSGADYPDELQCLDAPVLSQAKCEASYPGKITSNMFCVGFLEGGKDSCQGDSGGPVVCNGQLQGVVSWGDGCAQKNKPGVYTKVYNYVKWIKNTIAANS

Row | Ki (Prothrombin) | Ki (Coagulation factor X) | Ki (Serine protease 1) | Compound | also measured
1 | > 4 µM | 0.088 µM | > 2.9 µM | N=C(N)c1ccc(O)c(CCCNC(=O)c2ccc(-c3ccccc3)cc2)c1 | –
2 | > 4 µM | 0.131 µM | > 2.9 µM | N=C(N)c1ccc(O)c(CCCNC(=O)c2ccc(-c3ccccn3)s2)c1 | –
3 | > 4 µM | 0.058 µM | ~2.9 µM | N=C(N)c1ccc(O)c(CCCNC(=O)c2ccc(-c3ncc[nH]3)cc2)c1 | –
4 | > 4 µM | 0.051 µM | > 2.9 µM | N=C(N)c1ccc(O)c(/C=C/CNC(=O)c2ccc(-c3ccccc3)cc2)c1 | –
5 | > 4 µM | 0.184 µM | 1.4 µM | N=C(N)c1ccc(O)c(/C=C/CNC(=O)c2cc3nnc(O)cc3s2)c1 | –
6 | 2.9 µM | 0.02 µM | 1.4 µM | N=C(N)c1ccc(O)c(/C=C/CNC(=O)c2ccc(-c3ccc(C(N)=O)cc3)cc2)c1 | –
7 | > 4 µM | 0.005 µM | > 2.9 µM | N=C(N)c1ccc(O)c(/C=C/CNC(=O)c2ccc(-c3cccc(C(N)=O)c3)cc2)c1 | –
8 | – | 0.005 µM | – | COC(=O)[C@H](Cc1cccc(C(=N)N)c1)[C@@H](C)NC(=O)c1ccc(-c2ccccc2)cc1 | –
9 | 3.2 µM | 0.061 µM | 2.3 µM | CC(C)(C)c1ccc(C(=O)NC/C=C/c2cc(C(=N)N)ccc2O)cc1 | –
10 | > 4 µM | 0.128 µM | 1.4 µM | N=C(N)c1ccc(O)c(/C=C/CNC(=O)c2ccc(-c3ncc[nH]3)cc2)c1 | –
11 | > 4 µM | 0.037 µM | 1.4 µM | N=C(N)c1ccc(O)c(/C=C/CNC(=O)c2ccc(-c3ccccn3)s2)c1 | –
12 | – | 0.0005 µM | – | COC(=O)[C@H](Cc1cccc(C(=N)N)c1)[C@@H](C)NC(=O)c1ccc(-c2cccc(C(N)=O)c2)cc1 | Ki [1]: > 18.5 µM; Ki (Plasminogen): 0.14 µM; Ki [2]: > 8.7 µM
13 | > 4 µM | 0.002 µM | 1.5 µM | N=C(N)c1ccc(O)c(/C=C/CNC(=O)c2ccc(-c3ccccc3S(N)(=O)=O)cc2)c1 | –
14 | > 4 µM | 0.009 µM | 0.24 µM | N=C(N)c1ccc(O)c(/C=C/CNC(=O)c2ccc(-c3cccc(S(N)(=O)=O)c3)cc2)c1 | –
15 | – | 1 µM | – | N=C(N)c1cccc(CCCNC(=O)c2ccc(-c3ccccc3)cc2)c1 | –
16 | > 4 µM | 0.012 µM | 1.6 µM | N=C(N)c1ccc(O)c(/C=C/CNC(=O)c2ccc(-c3ccc(S(N)(=O)=O)cc3)cc2)c1 | –
17 | ~4 µM | 0.181 µM | > 2.9 µM | N=C(N)c1ccc(O)c(CCCNC(=O)c2cc3ccc(Cl)cc3s2)c1 | –
18 | > 4 µM | 0.019 µM | 1.8 µM | N=C(N)c1ccc(O)c(/C=C/CNC(=O)c2ccc(-c3c[nH]cn3)cc2)c1 | –
19 | > 4 µM | 0.007 µM | > 2.9 µM | N=C(N)c1ccc(O)c(CCCNC(=O)c2ccc(-c3cccc(C(N)=O)c3)cc2)c1 | Ki [1]: 15 µM; Ki (Plasminogen): 3.5 µM; Ki [2]: > 8.7 µM
20 | > 4 µM | 0.254 µM | ~2.9 µM | N=C(N)c1ccc(O)c(CCCNC(=O)c2ccc(-c3c[nH]cn3)cc2)c1 | –
21 | > 4 µM | 0.00075 µM | 2.2 µM | N=C(N)c1ccc(O)c(/C=C/CNC(=O)c2ccc(-c3ccnc(C(N)=O)c3)cc2)c1 | Ki [1]: ~18.5 µM; Ki (Plasminogen): > 7.3 µM; Ki [2]: 7.7 µM; Concentration (Homo sapiens): 0.87 µM; Concentration (Rattus norvegicus): 1.7 µM; Concentration (Canis lupus familiaris): 0.99 µM; Concentration (Oryctolagus cuniculus): 0.51 µM
22 | > 4 µM | 0.059 µM | 2.2 µM | CC(C)(C)c1ccc(C(=O)NCCCc2cc(C(=N)N)ccc2O)cc1 | –
23 | > 4 µM | 0.038 µM | 1.9 µM | N=C(N)c1ccc(O)c(CCCNC(=O)c2ccc(-c3cccnc3)cc2)c1 | –
